Test results taken from patent US6706683B1, “Method for controlling the release of granules” (Asahi Kasei Pharma Corporation, priority 1998, dated 2004).

What was measured:
neutrophils = assay: Screening of samples in calgranulin-stimulated elastase secretion from permeabilized neutrophils (Example 3); format: cell-based, human; conditions: sample 30 μM; for Amount of secretion (%): elastase, control without sample = 100%, calcium chloride 1 μM plus calgranulin (type and concentration not given); for effect on elastase (granule) secretion from neutrophils, in words: calgranulin A activated system
human neutrophils [1] = assay: Elastase secretion from permeabilized human neutrophils on addition of calgranulin and calcium chloride (Example 1); format: cell-based; conditions: 3 μM calgranulin, 1 μM calcium chloride, digitonin-permeabilized neutrophils, 37° C. 5 minutes
Method: A neutrophil suspension was prepared from blood collected from human vein according to the method described in Biological Chemistry Experiment Lecture, second series, No. 8, Blood, Vol. 2, 679-685). The neutrophil suspension was adjusted to a concentration of 1×10^7 cells/ml in a plastic test tube using a permeabilized buffer (PB) (30 mM HEPES, 100 mM KCl, 20 mM NaCl, 1 mM EGTA, pH 7.0) and incubated at 37° C. for 10 minutes. Digitonin (Sigma company) was added to the neutrophil suspension to a final concentration of 5-7.5 μg/ml and the mixture was incubated at, 37° C. for 15 minutes. The neutrophil suspension was centrifuged at 1200 rpm for 5 minutes. After discarding supernatant, precipitated neutrophils were re-suspended in PB to prepare a permeabilized neutrophil suspension (cell concentration: 1×10^7/ml).
The permeabilized neutrophil suspension was added to a 96-well immunoplate, 200 μl per well, and incubated for at 37° C. 15 minutes. […]
The 96-well immunoplate was centrifuged at 1200 rpm for one minute at 4° C. using a centrifugation container for immunoplates. […] Then, absorbance at 405 nm was measured using a microplate reader.

human neutrophils [2] = assay: Lactoferrin secretion from permeabilized human neutrophils on addition of calgranulin and calcium chloride, ELISA (Example 2); format: cell-based; conditions: 3 μM calgranulin, 1 μM calcium chloride, digitonin-permeabilized neutrophils, 37° C. 5 minutes
Method: A neutrophil suspension was prepared from blood collected from human vein according to the method described in Biological Chemistry Experiment Lecture, second series, No. 8, Blood, Vol. 2, 679-685). The neutrophil suspension was adjusted to a concentration of 1×10^7 cells/ml using PB in a plastic test tube and incubated at 37° C. for 10 minutes. Digitonin (Sigma company) was added to the neutrophil suspension to a final concentration of 5 μg/ml and the mixture was incubated at 37° C. for 15 minutes.
The neutrophil suspension was centrifuged at 1200 rpm for 5 minutes. After supernatant was discarded, precipitated neutrophils were re-suspended in PB to prepare a permeabilized neutrophil suspension (cell concentration: 1×10^7 cells/ml). The permeabilized neutrophil suspension was added to a 96-well immunoplate, 200 μl per well, and incubated at 37° C. for 15 minutes. Next, an aqueous solution of calcium chloride (final concentration: 1 μM) and calgranulin A, calgranulin B, or a equimolar mixture of calgranulin A and calgranulin B (each to a final concentration of 0 μM, 0.3 μM, 1 μM, or 3 μM) were added, and the resulting mixtures were incubated at 37° C. for 5 minutes. The 96-well immunoplate was centrifuged at 1200 rpm for one minute at 4° C. ELISA-kit (OXIS Co.) was used for the determination of lactoferrin. […]

CCCCCCC(CC)=C(c1ccc(O)cc1)c1ccc(O)cc1 [Compound 3, 1,1-(di-4-hydroxyphenyl)-2-ethyl-1-octaene]
Amount of secretion (%) (neutrophils): 151%
effect on elastase (granule) secretion from neutrophils, in words (neutrophils): remarkably increased the amount of secretion

COc1ccc(N(CCCCCCCN2CCNCC2)Cc2ccccc2)cc1.Cl.Cl.Cl [Compound 2, N-benzyl-N-(4-methoxyphenyl)-7-piperazinylheptylamine trihydrochloride]
Amount of secretion (%) (neutrophils): 51%
effect on elastase (granule) secretion from neutrophils, in words (neutrophils): remarkably controlled granule secretion

COc1ccc(CN(CCCCCCCN2CCNCC2)c2ccc(OC)cc2)cc1.Cl.Cl.Cl [Compound 1, N-(4-methoxybenzyl)-N-(4-methoxyphenyl)-7-piperazinylheptyl amine trihydrochloride]
Amount of secretion (%) (neutrophils): 61%
effect on elastase (granule) secretion from neutrophils, in words (neutrophils): remarkably controlled granule secretion

B1: calgranulin B: calcium-binding protein with a molecular weight of about 14 kD; SEQ ID NOS 2 and 4 (protein, listed as Homo sapiens)
chain: MTCKMSQLERNIETIINTFHQYSVKLGHPDTLNQGEFKELVRKDLQNFLKKENKNEKVIEHIMEDLDTNADKQLSFEEFIMLMARLTWASHEKMHEGDEGPGHHHKPGLGEGTP
amount of elastase secretion, assuming secretion in the absence of calgranulin is 1 (human neutrophils [1]): about seven
amount of lactoferrin secretion, assuming secretion in the absence of calgranulin is 1 (human neutrophils [2]): about five

B2: calgranulin A: calcium-binding protein with a molecular weight of about 8 kD; SEQ ID NOS 1 and 3 (protein, listed as Homo sapiens)
chain: MLTELEKALNSIIDVYHKYSLIKGNFHAVYRDDLKKLLETECPQYIRKKGADVWFKELDINTDGAVNFQEFLILVIKMGVAAHKKSHEESHKE
amount of elastase secretion, assuming secretion in the absence of calgranulin is 1 (human neutrophils [1]): about eight
amount of lactoferrin secretion, assuming secretion in the absence of calgranulin is 1 (human neutrophils [2]): about six
